In brackets after ≈: the same amount, converted by molar mass.

The text below walks through data of patent publication US6818662B2, “Pharmaceutical composition” (Taisho Pharmaceutical Co., Ltd., priority 2002, dated 2004).

What all share (format): physicochemical
The nature of series [1]: Stability in acidic solution. The text has this:
(§1) The present invention can be disclosed in more detail as follows. Since N-(3-chloro-4-morpholin-4-yl)phenyl-N′-hydroxyimidoformamidine was unstable in an acidic solution, solubilization by forming it into an acidic salt thereof was not proper. Furthermore, the solubility of N-(3-chloro-4-morpholin-4-yl)phenyl-N′-hydroxyimidoformamidine in 5% Tween 80, 10% polyethylene glycol, soybean oil and olive oil, which were used for forming it into micelles, co-solvents and lipid emulsion preparations, was not more than 0.5 mg/mL at 25° C. and was insufficient for forming it into these micelles, co-solvents and lipid emulsion preparations. […] Based on this unpredictable finding in which in the case of the sulfobutyl ether β-cyclodextrin solution, the drug is stable over light exposure and thus, it is convenient for actual use without a special care such as shading, the present invention has been accomplished.

Series [2] is described as follows: Solubility in vehicles for micelles, co-solvents and lipid emulsion preparations.
Text: as §1

A short description of a further series: Solubilization test. The note with it: 25° C. As to the method: An excess amount of N-(3-chloro-4-morpholin-4-yl)phenyl-N′-hydroxyimidoformamidine was added to 10% and 20% aqueous solutions of sulfobutyl ether β-cyclodextrin sodium salt (Captisol (trade name); average substitution degree is about 7) and purified water as a control, respectively. After shaking on a water bath adjusted at 25° C. for one day, the solubility of the drug was measured.

Broadly, the solubility is the concentration that dissolves in the medium under given conditions. With `ON=CNc1ccc(N2CCOCC2)c(Cl)c1` [N-(3-chloro-4-morpholin-4-yl)phenyl-N′-hydroxyimidoformamidine], in series [1], the “stability in an acidic solution” value was “unstable”. Further, the solubility result is “not more than 0.5 mg/mL” in series [2] (5% Tween 80, 25° C.); “not more than 0.5 mg/mL” in series [2] (10% polyethylene glycol, 25° C.); “not more than 0.5 mg/mL” in series [2] (olive oil, 25° C.); “not more than 0.5 mg/mL” in series [2] (soybean oil, 25° C.); 3.57 mg/mL in the series “Solubilization test” (10% aqueous solution of sulfobutyl ether β-cyclodextrin sodium salt); 7.67 mg/mL in “Solubilization test” (20% aqueous solution of sulfobutyl ether β-cyclodextrin sodium salt). Also, the solubility in “Solubilization test” (purified water (control), shaking one day) came to 0.08 mg/mL (≈ 313 µM).
